According to ChEMBL document CHEMBL1201862, “PubChem BioAssay data set” (2004):
Activity calls are given as the source filed them.

Columns and labels:
[1] = biological target: Estrogen receptor beta (Homo sapiens, UniProt Q92731);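 also: recombinant ER-beta bound to coactivator SRC1 peptide in presence of estradiol agonist; inhibitors block coactivator peptide binding and lower the FRET signal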
[2] = Dd2 parasite growth inhibition in erythrocytes – SYBR Green, dry powder samples, set 9, dose response (AID 1159568); format: functional, cell-based
[3] = biological target: T1, Aminopeptidase N (Plasmodium falciparum FcB1/Columbia, UniProt O96935); experiment: malaria alanyl aminopeptidase activity blockers – biochemical, fluorogenic H-Leu-NHMec substrate, 1536-well (AID 1445); parameters: species or system Plasmodium falciparum 3D7, 3D7
T1 sequence (O96935 whole entry): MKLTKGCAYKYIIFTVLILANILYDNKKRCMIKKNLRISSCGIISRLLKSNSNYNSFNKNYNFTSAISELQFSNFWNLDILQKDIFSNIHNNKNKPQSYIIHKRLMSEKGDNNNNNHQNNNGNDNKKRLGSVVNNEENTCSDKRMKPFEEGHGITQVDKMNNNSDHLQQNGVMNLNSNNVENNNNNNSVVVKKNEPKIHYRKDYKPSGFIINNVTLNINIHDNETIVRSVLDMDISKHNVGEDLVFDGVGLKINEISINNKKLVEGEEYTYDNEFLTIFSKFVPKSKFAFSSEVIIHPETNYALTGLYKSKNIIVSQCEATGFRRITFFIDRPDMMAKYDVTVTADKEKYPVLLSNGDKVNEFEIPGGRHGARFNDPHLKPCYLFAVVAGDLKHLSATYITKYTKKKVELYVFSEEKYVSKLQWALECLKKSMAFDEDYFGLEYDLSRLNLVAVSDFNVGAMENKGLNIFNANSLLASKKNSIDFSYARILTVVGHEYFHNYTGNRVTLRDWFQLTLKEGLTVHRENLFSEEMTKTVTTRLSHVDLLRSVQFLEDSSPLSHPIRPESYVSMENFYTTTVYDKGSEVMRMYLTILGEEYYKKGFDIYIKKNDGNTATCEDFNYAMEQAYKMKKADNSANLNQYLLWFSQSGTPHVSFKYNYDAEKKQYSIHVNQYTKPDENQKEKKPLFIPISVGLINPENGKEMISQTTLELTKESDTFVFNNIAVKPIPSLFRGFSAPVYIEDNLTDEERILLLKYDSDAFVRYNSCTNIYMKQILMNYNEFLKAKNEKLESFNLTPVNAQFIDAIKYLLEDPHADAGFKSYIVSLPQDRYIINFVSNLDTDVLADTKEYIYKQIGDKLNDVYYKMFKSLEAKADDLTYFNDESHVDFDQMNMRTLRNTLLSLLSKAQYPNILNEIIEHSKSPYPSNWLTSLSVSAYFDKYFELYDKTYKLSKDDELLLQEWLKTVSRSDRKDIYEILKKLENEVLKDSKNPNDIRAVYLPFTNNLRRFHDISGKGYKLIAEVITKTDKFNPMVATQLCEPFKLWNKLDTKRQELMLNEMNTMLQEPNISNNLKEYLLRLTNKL

[4] = biological target: Peroxisome proliferator-activated receptor gamma/Nuclear receptor coactivator 1 (Homo sapiens, UniProt P37231); experiment: TR-FRET dose response biochemical High Throughput Screening assay for agonists of the steroid receptor coactivator 1 (SRC-1) recruitment by the peroxisome proliferator-activated receptor gamma (PPAR gamma): non-selective agonists. [Related pubchem assays (depositor defined):AID1300, AID1808, AID504735, AID631]; format: protein assay
[5] = biological target: Peroxisome proliferator-activated receptor gamma/Nuclear receptor coactivator 2 (Homo sapiens, UniProt P37231); experiment: (§1) TR-FRET dose response biochemical High Throughput Screening assay for agonists of the steroid receptor coactivator 2 (SRC-2) recruitment by the peroxisome proliferator-activated receptor gamma (PPAR gamma): non-selective agonists. [Related pubchem assays: 1297, 1032 ]; format: functional
[6] = biological target: Peroxisome proliferator-activated receptor gamma/Nuclear receptor coactivator 3 (Homo sapiens, UniProt P37231); experiment: as §1, with “3 (SRC-3)” for “2 (SRC-2)”, “1301 (Confirmation screen.), 1048 (Primary screen.)]” for “1297, 1032 ]”; format: functional
[7] = biological target: Beta-galactosidase (Escherichia coli, UniProt Q8VNN2); experiment: detection-enzyme interference by beta-gal modulators – biochemical, E. coli enzyme, set 3, artefact control for CCR6 antagonist project, dose response (AID 504712); format: functional
[8] = biological target: T2, Short transient receptor potential channel 4 (Mus musculus, UniProt Q9QUQ5); experiment: block of DAMGO-driven TRPC4 calcium entry – cell-based, HEK293 TRPC4/mu-opioid, Fluo-4 calcium, dose response (AID 434942); format: functional;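 also: potency of inhibitors blocking the TRPC4 calcium response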
T2 sequence (Q9QUQ5 whole entry): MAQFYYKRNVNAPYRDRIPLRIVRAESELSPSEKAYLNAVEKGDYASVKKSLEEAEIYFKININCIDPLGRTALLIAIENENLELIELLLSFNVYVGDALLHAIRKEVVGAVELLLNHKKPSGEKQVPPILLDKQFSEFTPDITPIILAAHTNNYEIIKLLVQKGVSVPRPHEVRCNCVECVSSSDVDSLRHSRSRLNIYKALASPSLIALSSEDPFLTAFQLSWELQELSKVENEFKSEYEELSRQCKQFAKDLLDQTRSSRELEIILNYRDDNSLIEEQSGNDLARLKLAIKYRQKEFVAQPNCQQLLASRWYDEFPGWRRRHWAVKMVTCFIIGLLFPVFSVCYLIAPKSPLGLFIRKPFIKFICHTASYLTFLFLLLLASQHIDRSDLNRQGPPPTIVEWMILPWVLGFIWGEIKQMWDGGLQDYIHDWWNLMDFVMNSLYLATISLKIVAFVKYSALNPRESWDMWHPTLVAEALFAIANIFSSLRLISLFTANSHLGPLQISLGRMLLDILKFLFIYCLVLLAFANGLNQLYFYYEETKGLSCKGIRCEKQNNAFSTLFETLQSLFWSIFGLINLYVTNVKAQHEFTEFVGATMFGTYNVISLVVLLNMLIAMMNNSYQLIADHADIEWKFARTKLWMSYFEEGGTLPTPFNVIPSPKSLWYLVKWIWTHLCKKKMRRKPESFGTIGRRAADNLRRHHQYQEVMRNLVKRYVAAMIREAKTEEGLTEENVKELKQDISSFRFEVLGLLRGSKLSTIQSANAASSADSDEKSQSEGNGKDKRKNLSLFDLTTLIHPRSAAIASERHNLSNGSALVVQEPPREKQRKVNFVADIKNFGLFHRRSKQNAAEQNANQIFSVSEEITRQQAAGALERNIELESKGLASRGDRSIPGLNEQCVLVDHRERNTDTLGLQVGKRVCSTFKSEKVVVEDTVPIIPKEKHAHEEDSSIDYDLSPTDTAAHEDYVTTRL

[9] = toxicity to human hepatoma HepG2 cells – cell-based, cherry-picked samples, cytotoxicity control, dose response (AID 1159577); format: functional
[10] = P. falciparum Dd2 growth inhibitors, dose response, SYBR Green, cherry-picked samples (AID 1159567); format: functional, cell-based
[11] = Dd2 malaria parasite growth inhibition potency – SYBR Green, dry powder samples, dose response (AID 1159566); format: functional, cell-based;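 also: potency for growth inhibition with lower SYBR green DNA signal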
[12] = growth inhibition of PfATP4-mutant resistant parasites – NITD609-resistant line, SYBR Green, dry powder, dose response (AID 1159571); format: functional, cell-based;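 also: parasites synchronized at ring stage by sorbitol before testing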
[13] = growth inhibition of yeast DHODH-expressing 3D7 parasites – SYBR Green, dry powder samples, dose response (AID 1159570); format: functional, cell-based;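 also: parasite growth measured after 72 hours of compound exposure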
[14] = A Cell Based Secondary Assay To Explore Cytotoxicity of Compounds that Sensitize Mycobacterium Tuberculosis to Beta-Lactam Antibiotics.; format: functional
[15] = Trypanosoma cruzi growth suppression in host cells – NIH3T3 host cells, beta-gal luminescence, confirmation (AID 2044); format: functional, cell-based;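 also: intracellular parasites grown in NIH/3T3 mouse fibroblasts as host cells; luminescent beta-galactosidase reporter signal from transgenic T. cruzi replicating inside host cells; inhibitors lower the luminescence signal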
[16] = NIH3T3 cell viability loss – ATP luminescence, mouse fibroblasts, counter-screen, dose response (AID 2010); format: functional, cell-based;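 also: cells exposed to compound for about 90 hours before reading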
[17] = biological target: Cytochrome P450 2C9 (Homo sapiens, UniProt P11712)
[18] = biological target: T3, Cytochrome P450 1A2 (Homo sapiens, UniProt P05177);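 also: PubChem cytochrome P450 panel assay, CYP1A2 panel member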
T3 sequence (P05177 whole entry): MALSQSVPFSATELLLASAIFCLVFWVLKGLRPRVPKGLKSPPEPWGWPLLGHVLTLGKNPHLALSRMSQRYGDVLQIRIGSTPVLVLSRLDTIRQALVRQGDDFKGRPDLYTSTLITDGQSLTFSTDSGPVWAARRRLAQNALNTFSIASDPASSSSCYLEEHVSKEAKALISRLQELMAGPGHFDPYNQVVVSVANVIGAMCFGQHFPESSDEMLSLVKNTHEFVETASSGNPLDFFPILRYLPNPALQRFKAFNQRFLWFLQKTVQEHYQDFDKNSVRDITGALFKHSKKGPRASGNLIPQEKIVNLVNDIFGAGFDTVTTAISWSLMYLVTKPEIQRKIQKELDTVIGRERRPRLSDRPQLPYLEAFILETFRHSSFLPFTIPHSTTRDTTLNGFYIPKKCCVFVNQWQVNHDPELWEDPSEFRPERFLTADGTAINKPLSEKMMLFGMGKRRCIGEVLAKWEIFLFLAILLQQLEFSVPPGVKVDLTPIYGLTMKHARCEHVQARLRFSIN

[19] = biological target: Genome polyprotein (dengue virus type 2, UniProt P29990); experiment: flavivirus cap methylation enzyme inhibition – biochemical, confirmation dose response, primary screen (AID 588689); format: functional
[20] = biological target: Cytochrome P450 2D6 (Homo sapiens, UniProt P10635);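 also: CYP2D6 member of a cytochrome P450 panel assay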
[21] = biological target: Cytochrome P450 3A4 (Homo sapiens, UniProt P08684);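 also: CYP3A4 tested as one member of a cytochrome P450 panel screen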
[22] = biological target: Cytochrome P450 2C19 (Homo sapiens, UniProt P33261); experiment: Cytochrome panel assay with activity outcomes. Panel member name: p450-cyp2c19 Compounds with AC50 equal or less than 10 uM are considered active; format: functional; details: read-out: AC50
[23] = biological target: T2, Short transient receptor potential channel 4; experiment: calcium entry via TRPC4 opening agents – cell-based, HEK293 TRPC4/mu-opioid, Fluo-4 calcium, dose response (AID 434937); format: functional
[24] = microbe, parasite or virus in culture; format: functional; details: Mycobacterium tuberculosis
[25] = Luminescence Cell-Based Dose Retest to Confirm Inhibitors of Cancer Stem Cells. [Related pubchem assays (depositor defined):AID2717, AID2721]; format: functional; details: Homo sapiens

Chain of Estrogen receptor beta (Q92731 whole entry): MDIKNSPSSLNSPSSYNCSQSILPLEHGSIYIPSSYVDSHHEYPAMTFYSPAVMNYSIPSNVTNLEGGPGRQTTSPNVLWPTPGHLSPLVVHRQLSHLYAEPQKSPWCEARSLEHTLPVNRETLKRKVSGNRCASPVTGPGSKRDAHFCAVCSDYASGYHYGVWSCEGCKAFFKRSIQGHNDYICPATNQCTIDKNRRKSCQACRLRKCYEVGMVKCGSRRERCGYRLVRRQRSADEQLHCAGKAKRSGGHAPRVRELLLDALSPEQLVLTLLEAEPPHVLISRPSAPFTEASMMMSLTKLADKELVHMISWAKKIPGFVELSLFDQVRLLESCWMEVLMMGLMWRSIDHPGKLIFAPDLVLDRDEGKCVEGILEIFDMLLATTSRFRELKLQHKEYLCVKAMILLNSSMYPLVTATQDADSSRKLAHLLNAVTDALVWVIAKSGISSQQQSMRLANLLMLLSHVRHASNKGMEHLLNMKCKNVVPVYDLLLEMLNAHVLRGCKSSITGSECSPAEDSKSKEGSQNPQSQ
Chain of Peroxisome proliferator-activated receptor gamma/Nuclear receptor coactivator 1 (P37231 whole entry): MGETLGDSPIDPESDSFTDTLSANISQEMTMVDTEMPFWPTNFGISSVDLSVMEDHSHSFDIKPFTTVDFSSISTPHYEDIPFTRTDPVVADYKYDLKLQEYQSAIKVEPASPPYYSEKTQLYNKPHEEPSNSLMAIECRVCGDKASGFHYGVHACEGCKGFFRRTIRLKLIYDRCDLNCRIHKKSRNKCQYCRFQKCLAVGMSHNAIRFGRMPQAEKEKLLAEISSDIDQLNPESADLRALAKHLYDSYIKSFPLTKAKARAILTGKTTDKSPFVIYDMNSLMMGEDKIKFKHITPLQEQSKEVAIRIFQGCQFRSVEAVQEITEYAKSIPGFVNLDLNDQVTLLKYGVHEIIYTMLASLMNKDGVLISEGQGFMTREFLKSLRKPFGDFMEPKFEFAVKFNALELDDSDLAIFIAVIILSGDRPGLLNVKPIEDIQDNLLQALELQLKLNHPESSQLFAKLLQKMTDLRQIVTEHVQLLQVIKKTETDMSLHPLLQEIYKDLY
Chain of Peroxisome proliferator-activated receptor gamma/Nuclear receptor coactivator 1 (Q15788 whole entry, further chain): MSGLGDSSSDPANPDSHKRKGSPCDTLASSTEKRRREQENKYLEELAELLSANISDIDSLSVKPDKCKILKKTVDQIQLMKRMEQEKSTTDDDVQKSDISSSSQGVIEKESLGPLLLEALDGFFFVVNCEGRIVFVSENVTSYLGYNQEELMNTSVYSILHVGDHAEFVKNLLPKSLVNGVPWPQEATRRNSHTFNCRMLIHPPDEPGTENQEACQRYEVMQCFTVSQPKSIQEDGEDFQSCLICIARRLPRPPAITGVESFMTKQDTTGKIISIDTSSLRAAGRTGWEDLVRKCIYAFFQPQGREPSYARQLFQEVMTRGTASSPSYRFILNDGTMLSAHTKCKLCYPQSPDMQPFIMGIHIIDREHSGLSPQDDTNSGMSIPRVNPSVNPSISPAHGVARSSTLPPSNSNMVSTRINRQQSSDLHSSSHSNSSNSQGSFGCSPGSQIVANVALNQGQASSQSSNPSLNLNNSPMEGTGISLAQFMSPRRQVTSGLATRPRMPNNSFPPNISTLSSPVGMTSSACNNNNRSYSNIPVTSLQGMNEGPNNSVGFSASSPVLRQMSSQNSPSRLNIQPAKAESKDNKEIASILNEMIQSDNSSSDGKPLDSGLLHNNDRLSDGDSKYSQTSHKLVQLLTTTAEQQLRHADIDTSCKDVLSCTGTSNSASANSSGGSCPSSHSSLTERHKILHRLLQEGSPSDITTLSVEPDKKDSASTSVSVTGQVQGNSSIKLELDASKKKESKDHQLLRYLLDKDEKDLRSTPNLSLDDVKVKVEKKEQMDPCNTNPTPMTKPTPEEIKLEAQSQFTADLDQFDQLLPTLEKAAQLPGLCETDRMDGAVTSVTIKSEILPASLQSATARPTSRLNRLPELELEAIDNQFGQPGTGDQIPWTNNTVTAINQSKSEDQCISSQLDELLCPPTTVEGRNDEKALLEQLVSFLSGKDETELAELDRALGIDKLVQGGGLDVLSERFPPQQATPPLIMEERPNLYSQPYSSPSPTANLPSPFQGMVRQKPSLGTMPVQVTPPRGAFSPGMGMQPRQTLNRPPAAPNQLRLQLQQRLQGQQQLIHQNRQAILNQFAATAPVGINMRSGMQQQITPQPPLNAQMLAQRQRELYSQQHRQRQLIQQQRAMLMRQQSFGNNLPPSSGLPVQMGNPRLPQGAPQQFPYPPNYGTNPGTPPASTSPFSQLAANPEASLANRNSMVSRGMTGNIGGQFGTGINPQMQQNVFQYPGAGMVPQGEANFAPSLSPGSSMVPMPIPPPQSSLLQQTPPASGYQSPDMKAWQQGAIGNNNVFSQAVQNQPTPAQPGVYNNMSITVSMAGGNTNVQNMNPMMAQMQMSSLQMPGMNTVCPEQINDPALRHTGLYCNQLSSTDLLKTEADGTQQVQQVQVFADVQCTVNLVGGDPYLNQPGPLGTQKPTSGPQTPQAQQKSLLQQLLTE
Chain of Peroxisome proliferator-activated receptor gamma/Nuclear receptor coactivator 3 (P37231 whole entry): as the sequence (P37231 whole entry) above
Chain of Peroxisome proliferator-activated receptor gamma/Nuclear receptor coactivator 3 (Q9Y6Q9 whole entry, further chain): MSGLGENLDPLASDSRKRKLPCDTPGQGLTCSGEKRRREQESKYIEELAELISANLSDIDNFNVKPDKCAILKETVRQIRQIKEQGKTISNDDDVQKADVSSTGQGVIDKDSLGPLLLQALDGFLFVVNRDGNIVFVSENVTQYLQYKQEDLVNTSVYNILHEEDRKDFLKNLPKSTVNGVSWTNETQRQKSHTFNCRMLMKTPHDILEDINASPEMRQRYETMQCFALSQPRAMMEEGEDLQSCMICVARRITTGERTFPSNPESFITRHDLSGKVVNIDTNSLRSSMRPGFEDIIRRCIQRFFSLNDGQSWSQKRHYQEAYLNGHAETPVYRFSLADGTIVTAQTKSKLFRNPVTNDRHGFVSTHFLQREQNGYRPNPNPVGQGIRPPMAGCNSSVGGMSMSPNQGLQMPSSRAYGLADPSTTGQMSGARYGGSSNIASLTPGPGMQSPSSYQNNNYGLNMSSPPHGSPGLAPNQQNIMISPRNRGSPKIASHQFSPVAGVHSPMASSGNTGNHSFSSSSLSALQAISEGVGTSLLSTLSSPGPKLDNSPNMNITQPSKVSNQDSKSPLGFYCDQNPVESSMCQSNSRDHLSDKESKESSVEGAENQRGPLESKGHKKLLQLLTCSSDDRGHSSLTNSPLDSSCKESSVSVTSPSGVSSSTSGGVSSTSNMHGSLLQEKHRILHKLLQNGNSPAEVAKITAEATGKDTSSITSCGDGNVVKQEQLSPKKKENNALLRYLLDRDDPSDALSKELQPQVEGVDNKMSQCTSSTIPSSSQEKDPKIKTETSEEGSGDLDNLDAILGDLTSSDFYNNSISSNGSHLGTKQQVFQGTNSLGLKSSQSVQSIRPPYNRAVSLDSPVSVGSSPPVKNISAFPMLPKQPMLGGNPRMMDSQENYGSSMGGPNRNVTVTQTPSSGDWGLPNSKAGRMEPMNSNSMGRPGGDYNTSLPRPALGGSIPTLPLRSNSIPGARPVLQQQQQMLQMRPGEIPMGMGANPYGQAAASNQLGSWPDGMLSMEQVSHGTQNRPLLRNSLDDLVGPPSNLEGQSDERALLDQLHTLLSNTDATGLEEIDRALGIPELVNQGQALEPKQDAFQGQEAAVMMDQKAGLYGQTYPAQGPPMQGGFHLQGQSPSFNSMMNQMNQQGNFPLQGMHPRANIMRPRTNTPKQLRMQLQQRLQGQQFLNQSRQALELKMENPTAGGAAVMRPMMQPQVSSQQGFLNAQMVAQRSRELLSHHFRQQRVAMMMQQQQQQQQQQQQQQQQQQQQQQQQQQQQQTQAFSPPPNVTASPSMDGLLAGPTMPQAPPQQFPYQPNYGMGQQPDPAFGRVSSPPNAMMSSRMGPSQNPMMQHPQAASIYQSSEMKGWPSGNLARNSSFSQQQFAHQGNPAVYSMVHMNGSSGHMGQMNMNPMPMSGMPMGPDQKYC
Chain of Cytochrome P450 3A4 (P08684 whole entry): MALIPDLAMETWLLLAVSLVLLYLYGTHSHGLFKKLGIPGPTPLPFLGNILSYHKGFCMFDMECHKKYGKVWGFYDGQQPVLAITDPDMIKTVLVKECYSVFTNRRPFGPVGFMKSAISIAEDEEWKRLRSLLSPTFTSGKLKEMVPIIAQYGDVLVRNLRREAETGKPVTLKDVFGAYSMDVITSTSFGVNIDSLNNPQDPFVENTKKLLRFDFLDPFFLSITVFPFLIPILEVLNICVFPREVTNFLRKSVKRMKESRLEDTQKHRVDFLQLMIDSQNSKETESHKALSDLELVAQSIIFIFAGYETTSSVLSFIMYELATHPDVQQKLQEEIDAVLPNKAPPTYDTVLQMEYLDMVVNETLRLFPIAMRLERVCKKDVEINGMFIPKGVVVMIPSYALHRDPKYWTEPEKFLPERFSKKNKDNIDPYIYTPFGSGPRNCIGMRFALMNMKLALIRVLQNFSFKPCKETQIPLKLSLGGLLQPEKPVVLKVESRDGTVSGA

CC(C)Cn1c(-c2cccs2)nc2ccccc21
IC50 [1]: > 50 µM (not active)

O=C(Nc1ccc2c(c1)[C@@H]1C[C@@H](CC(=O)N3CCc4ccccc4C3)O[C@@H](CO)[C@@H]1O2)c1ccc2c(c1)OCO2
AC50 [2]: 13 µM (active)

O=C(Nc1ccc(Cl)cc1)N1C[C@@H]2[C@H](c3ccccc31)[C@@H](CO)N2CC1CCCCC1
AC50 [2]: 5.79 µM (active)

O=C(NCc1cccc(F)c1)C1CCN(C(=O)c2sccc2-n2cccc2)CC1
IC50 [3]: 100 µM (active)

CO[C@H]1CN(C)C(=O)c2cc(NC(=O)c3cccc(F)c3)ccc2OC[C@H](C)N(C)C[C@H]1C
AC50 [2]: 22.8 µM (active)

O=C(NCc1cccs1)C1CCN(S(=O)(=O)c2ccc(Cl)cc2)CC1
IC50 [3]: 89.3 µM (active)

O=C(Cc1cc(=O)oc2cc(O)ccc12)NCC1CCC(C(=O)O)CC1 (centres undefined)
IC50 [3]: 65.9 µM (active)

Cc1ccc2nc(NC(=S)NC(=O)c3ccco3)sc2c1
EC50 [4]: 43 µM (inactive)
EC50 [5]: 51.8 µM (not active)
EC50 [6]: > 79.4 µM (not active)

COc1ccc(C(C(=O)NC2CCCC2)N(C(=O)c2ccco2)c2ccc3c(c2)OCO3)cc1OC (centres undefined)
IC50 [1]: > 50 µM (not active)

Oc1c(/C=N/Cc2ccncc2)sc2ccccc12
IC50 [7]: > 66.6 µM (inactive)

NC(=O)c1nsc(C(=O)N(Cc2ccccc2Cl)C(C(=O)NCC2CCCO2)c2ccc(O)cc2)c1N (centres undefined)
EC50 [8]: 5.96 µM (active)

CCn1c(=O)cc(SCC(=O)NCc2ccc(C)cc2)c2ccccc21
EC50 [4]: > 79.4 µM (inactive)
EC50 [5]: > 26.5 µM (not active)
EC50 [6]: > 79.4 µM (not active)

Cc1cccc(-c2ccc([C@H]3[C@@H](CO)N4CCCCN(CCC(F)(F)F)C[C@H]34)cc2)c1
AC50 [9]: 8.62 µM (active)
AC50 [10]: 1.01 µM (active)

Cc1nc(N2[C@H](CO)[C@H](c3ccccc3)[C@H]2CNCC2CCCC2)sc1C
AC50 [9]: > 39 µM (inactive)
AC50 [11]: 1.12 µM (active)
AC50 [12]: 1.42 µM (active)
AC50 [10]: 2.26 µM (active)
AC50 [13]: 1.4 µM (active)

CC1=NN(c2ccccc2)C(=O)C1/C=N/c1ccccc1O (centres undefined)
IC50 [3]: 12.8 µM (active)
CC50 [14]: > 40 µM (active)

CCCCC(CC)C(=O)Nc1ncc([N+](=O)[O-])s1 (centres undefined)
EC50 [8]: 7.5 µM (active)
EC50 [15]: 1.29 µM (active)
EC50 [16]: > 60 µM (not active)

c1ccc(Cn2c(CN3CCCC3)nc3ccccc32)cc1
EC50 [8]: 2.11 µM (active)
AC50 [17]: 35.5 µM (inconclusive)
AC50 [18]: 14.1 µM (inconclusive)

O=C1/C(=C/c2nc3ccccc3[nH]2)SC(=S)N1NS(=O)(=O)c1ccccc1
IC50 [3]: 23.7 µM (active)
IC50 [19]: 54.7 µM (active)

COc1ccc2cc(C#N)c(SCC(=O)NNC(=O)Cc3ccccc3)nc2c1
EC50 [4]: 10.7 µM (inactive)
AC50 [20]: 2.51 µM (inconclusive)
EC50 [5]: 11.1 µM (not active)
AC50 [21]: 1.26 µM (inconclusive)
EC50 [6]: > 79.4 µM (not active)
AC50 [22]: 0.0398 µM (inconclusive)

COc1ccc(C(CNC(=O)Cc2ccc3ccccc3c2)N(C)C)cc1 (centres undefined)
EC50 [8]: 0.0533 µM (active)
EC50 [23]: 0.668 µM (active)

CC(C)N(C[C@H]1N[C@H](CO)[C@@H]1c1ccc(C2=CCCCC2)cc1)C(=O)CN(C)C
AC50 [9]: 10.8 µM (active)
AC50 [10]: 1.34 µM (active)

C[C@H](CO)N1C[C@H](C)[C@H](CN(C)Cc2ccc(-c3ccccc3)cc2)OCc2ccccc2-c2ccccc2C1=O
AC50 [9]: > 39 µM (inactive)
AC50 [10]: 5.19 µM (active)

COc1ccccc1NC(=O)N1C[C@@H]2N[C@H](C1)[C@H]2c1ccc(/C=C/c2ccccc2)cc1
AC50 [2]: 4.56 µM (active)
AC50 [10]: 3.04 µM (active)

O=C1C=CC(=O)N1
IC50 [7]: > 66.6 µM (inactive)

CCCCOC(=O)c1c(C)oc2ccc(NS(=O)(=O)c3ccc4c5c(cccc35)C(=O)N4)cc12
IC50 [1]: 13.5 µM (active)
CC50 [24]: > 40 µM (active)
AC50 [25]: 9.4 µM (active)

O=C(CNS(=O)(=O)c1ccc2ccccc2c1)OCC(=O)c1ccc(Br)s1
EC50 [4]: 8.72 µM (active)
EC50 [5]: 4.58 µM (active)
EC50 [6]: 36.5 µM (not active)
